Reference: patent publication US20110136792A1, “NOVEL CARBOXYLIC ACID ANALOGS AS GLYCOGEN SYNTHASE ACTIVATORS” (priority 2009, published 2011)

Test system: glycogen synthase
Test: Glycogen Synthase (GS) Assay
Assay type: biochemical
Settings: coupled pyruvate kinase/lactate dehydrogenase assay, absorbance at 340 nm; for EC50: compound concentration needed to give 50% maximum activation; for GS SC200: compound concentration needed to stimulate 200% of the enzyme activity
Protocol: The following tests were carried out in order to determine the activity of the compounds of formula (I).
Twelve μL per well of substrate solution containing glycogen (4.32 mg/ml), 2.67 mM UDP-glucose, 21.6 mM phospho(enol)pyruvate and 2.7 mM NADH in 30 mM glycylglycine, pH 7.3 buffer was added into a polystyrene 384-well assay plate (BD Biosciences).
Compound solutions (8 μL/well) at various concentrations (0-300 μM) were added to the assay plate (columns 5-24). Compound solution contains 30 mM glycylglycine, pH 7.3, 40 mM KCl, 20 mM MgCl2, 9.2% DMSO, with (columns 15-24) or without (columns 5-14) 20 mM glucose 6-phosphate.
Enzyme solution (12 μL/well) containing glycogen synthase (16.88 μg/ml), pyruvate kinase (0.27 mg/ml), lactate dehydrogenase (0.27 mg/ml) in 50 mM Tris-HCl, pH 8.0, 27 mM DTT and bovine serum albumin (BSA, 0.2 mg/ml) was added to the assay plate (columns 3-24). As a blank control, enzyme solution without glycogen synthase was added into the top half wells of columns 1-2. To the bottom half wells of columns 1-2 were added a known activator, glucose 6-phosphate (at final concentration 5 mM) in addition to the enzyme solution. The reaction mixture was incubated at room temperature. The assay plate was then read for absorbance at 340 nm on an Envision reader every 3 minutes up to a total of 15 minutes.
The enzyme activity (with or without compound) was calculated by the reaction rate and represented by the optical density change (δOD) per minute. Percent stimulation of glycogen synthase activity by a compound at various concentrations was calculated by the following formula: […]
Where Rs is the reaction rate of the enzyme in the presence of compound and Rt is the reaction rate of the enzyme in the absence of compound.
SC200 is defined as the compound concentration that is needed to stimulate 200% of the enzyme activity. EC50 is defined as the compound concentration that is needed to give 50% maximum activation.
Compounds from Examples 1 through Example 64 were assayed according to assay procedures described above and the result is listed in Table 1 below: […]

EC50 [nM]	Compound	GS SC200 [µM]
410	COc1cc(F)c(F)cc1-c1ccc(OCc2cccc(CN(CC(=O)O)C(=O)[C@@H]3CCCO3)c2)cc1 [Example 25, [[3-(4′,5′-Difluoro-2′-methoxy-biphenyl-4-yloxymethyl)-benzyl]-((S)-tetrahydro-furan-2-carbonyl)-amino]-acetic acid]	0.07
430	COc1cc(F)c(F)cc1-c1ccc(OCc2cccc(CN(CC(=O)O)C(C)=O)c2)cc1 [Example 21, {Acetyl-[3-(4′,5′-difluoro-2′-methoxy-biphenyl-4-yloxymethyl)-benzyl]-amino}-acetic acid]	0.16
5240	CCOC(=O)N(CC(=O)O)Cc1cccc(COc2ccc(-c3cc(F)c(F)cc3OC)cc2)c1 [Example 20, {[3-(4′,5′-Difluoro-2′-methoxy-biphenyl-4-yloxymethyl)-benzyl]-ethoxycarbonyl-amino}-acetic acid]	0.50
730	COc1cc(F)c(F)cc1-c1ccc(OCc2cccc(CN(CC(=O)O)C(=O)CC3CC3)c2)cc1 [Example 24, {(2-Cyclopropyl-acetyl)-[3-(4′,5′-difluoro-2′-methoxy-biphenyl-4-yloxymethyl)-benzyl]-amino}-acetic acid]	0.12
1820	COC(=O)N(CC(=O)O)Cc1cccc(COc2ccc(-c3cc(F)c(F)cc3OC)cc2)c1 [Example 19, {[3-(4′,5′-Difluoro-2′-methoxy-biphenyl-4-yloxymethyl)-benzyl]-methoxycarbonyl-amino}-acetic acid]	0.42
1930	CCN(CC(=O)O)Cc1cccc(COc2ccc(-c3cc(F)c(F)cc3OC)cc2)c1 [Example 36, {[3-(4′,5′-Difluoro-2′-methoxy-biphenyl-4-yloxymethyl)-benzyl]-ethyl-amino}-acetic acid]	0.50
1080	COc1cc(F)c(F)cc1-c1ccc(OCc2cccc(CN(CC(=O)O)C(=O)CC(C)C)c2)cc1 [Example 2, [[3-(4′,5′-Difluoro-2′-methoxy-biphenyl-4-yloxymethyl)-benzyl]-(3-methyl-butyryl)-amino]-acetic acid]	0.13
280	COc1cc(F)c(F)cc1-c1ccc(OCc2cccc(CN(CC(=O)O)C(=O)C3CCOC3)c2)cc1 (stereo not drawn) [Example 34, [[3-(4′,5′-Difluoro-2′-methoxy-biphenyl-4-yloxymethyl)-benzyl]-(tetrahydro-furan-3-carbonyl)-amino]-acetic acid]	0.04
310	CCS(=O)(=O)N(CC(=O)O)Cc1cccc(COc2ccc(-c3cc(F)c(F)cc3OC)cc2)c1 [Example 7, {[3-(4′,5′-Difluoro-2′-methoxy-biphenyl-4-yloxymethyl)-benzyl]-ethanesulfonyl-amino}-acetic acid]	0.04
480	COCC(C)C(=O)N(CC(=O)O)Cc1cccc(COc2ccc(-c3cc(F)c(F)cc3OC)cc2)c1 (stereo not drawn) [Example 31]	0.07
260	COc1cc(F)c(F)cc1-c1ccc(OCc2cccc(CN(CC(=O)O)C(=O)C3CC3)c2)cc1 [Example 22, {Cyclopropanecarbonyl-[3-(4′,5′-difluoro-2′-methoxy-biphenyl-4-yloxymethyl)-benzyl]-amino}-acetic acid]	0.03
370	CCC(=O)N(CC(=O)O)Cc1cccc(COc2ccc(-c3cc(F)c(F)cc3OC)cc2)c1 [Example 23, {[3-(4′,5′-Difluoro-2′-methoxy-biphenyl-4-yloxymethyl)-benzyl]-propionyl-amino}-acetic acid]	0.10
290	COc1cc(F)c(F)cc1-c1ccc(OCc2cccc(CN(CC(=O)O)S(C)(=O)=O)c2)cc1 [Example 10, {[3-(4′,5′-Difluoro-2′-methoxy-biphenyl-4-yloxymethyl)-benzyl]-methanesulfonyl-amino}-acetic acid]	0.03

Continued, molecule first:

Compound	EC50 [nM]	GS SC200 [µM]
O=C(O)[C@H]1CCS(=O)(=O)N1Cc1cccc(COc2ccc(-c3cc(F)c(F)cc3Cl)cc2)c1 [Example 50, (R)-2-[3-(2′-Chloro-4′,5′-difluoro-biphenyl-4-yloxymethyl)-benzyl]-1,1-dioxo-1lambda*6*-isothiazolidine-3-carboxylic acid]	840	0.42
COc1cc(F)c(F)cc1-c1ccc(OCc2cccc(CN(CC(=O)O)S(=O)(=O)c3ccccc3)c2)cc1 [Example 8, {Benzenesulfonyl-[3-(4′,5′-difluoro-2′-methoxy-biphenyl-4-yloxymethyl)-benzyl]-amino}-acetic acid]	910	0.17
Cc1cc(F)c(F)cc1-c1ccc(OCc2cccc(CN3C(C(=O)O)CCS3(=O)=O)c2)cc1 (racemic) [Example 39, 2-[3-(4′,5′-Difluoro-2′-methyl-biphenyl-4-yloxymethyl)-benzyl]-1,1-dioxo-1lambda*6*-isothiazolidine-3-carboxylic acid]	180	0.03
O=C(O)CN(Cc1cccc(COc2ccc(-c3ccc(F)cc3F)cc2)c1)C(=O)N1CCOCC1 [Example 13, [[3-(2′,4′-Difluoro-biphenyl-4-yloxymethyl)-benzyl]-(morpholine-4-carbonyl)-amino]-acetic acid]	930	0.10
O=C(O)[C@@H]1CCS(=O)(=O)N1Cc1cccc(COc2ccc(-c3cc(F)c(F)cc3F)cc2)c1 [Example 46, (S)-1,1-Dioxo-2-[3-(2′,4′,5′-trifluoro-biphenyl-4-yloxymethyl)-benzyl]-1lambda*6*-isothiazolidine-3-carboxylic acid]	90	0.01
O=C(O)[C@H]1CCS(=O)(=O)N1Cc1csc(COc2ccc(-c3cc(F)c(F)cc3F)cc2)n1 [Example 59, (R)-1,1-Dioxo-2-[2-(2′,4′,5′-trifluoro-biphenyl-4-yloxymethyl)-thiazol-4-ylmethyl]-1lambda*V-isothiazolidine-3-carboxylic acid]	16600	6.06
O=C(O)[C@@H]1CCC(=O)N1Cc1cccc(COc2ccc(-c3cc(F)c(F)cc3F)cc2)c1 [Example 53, (S)-5-Oxo-1-[3-(2′,4′,5′-trifluoro-biphenyl-4-yloxymethyl)-benzyl]-pyrrolidine-2-carboxylic acid]	130	0.03
COCC(C)C(=O)N(CC(=O)O)Cc1cccc(COc2ccc(-c3ccc(F)cc3F)cc2)c1 (stereo not drawn) [Example 17, [[3-(2′,4′-Difluoro-biphenyl-4-yloxymethyl)-benzyl]-(3-methoxy-2-methyl-propionyl)-amino]-acetic acid]	1530	0.36
O=C(O)CN(Cc1cccc(COc2ccc(-c3ccc(F)cc3F)cc2)c1)C(=O)c1cccnc1 [Example 15, [[3-(2′,4′-Difluoro-biphenyl-4-yloxymethyl)-benzyl]-(pyridine-3-carbonyl)-amino]-acetic acid]	1430	0.15
COc1cc(F)c(F)cc1-c1ccc(OCc2cccc(CN3[C@@H](C(=O)O)CCS3(=O)=O)c2)cc1 [Example 44, (R)-2-[3-(4′,5′-Difluoro-2′-methoxy-biphenyl-4-yloxymethyl)-benzyl]-1,1-dioxo-1lambda*6*-isothiazolidine-3-carboxylic acid]	380	0.09
O=C(O)CN(Cc1cccc(COc2ccc(-c3ccc(F)cc3F)cc2)c1)C(=O)c1ccccn1 [Example 16, [[3-(2′,4′-Difluoro-biphenyl-4-yloxymethyl)-benzyl]-(pyridine-2-carbonyl)-amino]-acetic acid]	1540	0.43
O=C(O)C(F)(F)F.O=C(O)[C@@H]1CCCN1Cc1cccc(COc2ccc(-c3ccc(F)cc3F)cc2)c1 [Example 54, (S)-1-[3-(2′,4′-Difluoro-biphenyl-4-yloxymethyl)-benzyl]-pyrrolidine-2-carboxylic acid; trifluoro-acetic acid salt]	3710	0.90
CC(C)(C)C(=O)N(CC(=O)O)Cc1cccc(COc2ccc(-c3ccc(F)cc3F)cc2)c1 [Example 11, [[3-(2′,4′-Difluoro-biphenyl-4-yloxymethyl)-benzyl]-(2,2-dimethyl-propionyl)-amino]-acetic acid]	3670	0.97
O=C(O)[C@H]1CCCS(=O)(=O)N1Cc1cccc(COc2ccc(-c3cc(F)c(F)cc3F)cc2)c1 [Example 57, (R)-1,1-Dioxo-2-[3-(2′,4′,5′-trifluoro-biphenyl-4-yloxymethyl)-benzyl]-1lambda*6*-[1,2]thiazinane-3-carboxylic acid]	2340	1.22
